Legend:
Format in all cases: binding
ERK5 = biological target: T1, ERK5 (Homo sapiens, UniProt Q13164); assay: Probe-based (AX9989 acyl phosphate ATP probe) kinase profiling in Jurkat lysate: ERK5; conditions: for IC50: calculated from percent inhibition of AX9989 labeling and the screening concentration, Jurkat lysate; for inhibition at 1 µM: screening concentration 1.0 μM
T1 construct: screened for activity against several kinases in Jurkat cells; endogenous in cells; host or cells: Jurkat cell lysate
T1 sequence (Q13164 whole entry): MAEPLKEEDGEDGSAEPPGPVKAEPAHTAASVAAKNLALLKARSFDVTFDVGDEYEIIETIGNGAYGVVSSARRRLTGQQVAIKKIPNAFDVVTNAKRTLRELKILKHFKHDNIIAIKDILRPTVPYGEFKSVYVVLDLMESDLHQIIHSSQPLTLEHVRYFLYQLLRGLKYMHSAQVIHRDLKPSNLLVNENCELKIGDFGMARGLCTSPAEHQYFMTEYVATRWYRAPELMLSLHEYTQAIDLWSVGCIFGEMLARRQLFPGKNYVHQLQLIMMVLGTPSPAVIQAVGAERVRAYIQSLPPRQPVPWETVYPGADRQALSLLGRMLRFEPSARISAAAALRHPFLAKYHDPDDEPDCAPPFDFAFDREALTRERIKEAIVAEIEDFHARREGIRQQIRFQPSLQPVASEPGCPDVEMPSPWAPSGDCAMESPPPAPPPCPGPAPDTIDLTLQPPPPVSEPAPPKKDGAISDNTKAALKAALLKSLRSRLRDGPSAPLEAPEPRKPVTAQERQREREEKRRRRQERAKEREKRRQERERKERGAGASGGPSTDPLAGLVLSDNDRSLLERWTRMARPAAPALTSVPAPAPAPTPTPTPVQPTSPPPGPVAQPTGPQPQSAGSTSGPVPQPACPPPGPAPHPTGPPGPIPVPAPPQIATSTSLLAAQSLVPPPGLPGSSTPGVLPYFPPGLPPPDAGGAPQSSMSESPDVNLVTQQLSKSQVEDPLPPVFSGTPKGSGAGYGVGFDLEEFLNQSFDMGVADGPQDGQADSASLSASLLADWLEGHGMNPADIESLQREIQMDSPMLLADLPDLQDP
Summary of the method: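 Gel-filtered Jurkat lysate (5 mg/ml, 20 mM MnCl2) preincubated 15 min at room temperature with compound, then labelled with 5 μM AX9989 acyl phosphate ATP probe. Probe-labelled ERK5 active-site peptides quantified by LC/MS after trypsin digestion and streptavidin capture; IC50 calculated from percent inhibition at the screening concentration.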

[1] = biological target: T2, BRD4 bromodomain domain I [BRD4(1)] (Homo sapiens, UniProt O60885); assay: BRD4 bromodomain domain 1 inhibition assay (TR-FRET); conditions: screening concentration 10 μM
T2 construct: BRD4 bromodomain domain I [BRD4(1)]; purchased Cayman Chemicals
Description: The inhibitory activity of test compounds on the bromodomain, BRD4 bromodomain domain I [BRD4(1)], were determined via TR-FRET after a slight modification of the manufacturer's protocol (Cayman Chemicals, Ann Arbor, Mich.). Briefly, compounds were diluted to a 20× ([…]) concentration in DMSO. 100 nL of 20× compounds were then dry stamped into triplicate wells of black, low volume 384 well plates (Aurora Biotechnologies, Carlsbad, Calif.) using the Mosquito liquid handler (TPP Labtech, Melbourn, UK). 20× compounds were then diluted to a 4× (40 μM) concentration in Assay Buffer to result in 2% DMSO content. […] JQ1 at 10 μM or 0.5% DMSO final concentrations were used as the positive and negative controls, respectively, to set the assay window. The fluorescence was read in a time-resolved format on the Biotec Synergy 2 plate reader by exciting the signal at 340 nm and reading emissions at 620 and 670, using a 100 μs delay and 200 μs read window. […] Briefly, TR-FRET ratio values were normalized to the average TR-FRET ratio value given by 10 μM JQ1. […]

AurA = biological target: T3, AurA (Homo sapiens, UniProt O14965); assay: Probe-based (AX9989) kinase profiling in Jurkat lysate: AurA; conditions: read-out: Kinase inhibition % at indicated screening concentration: AurA; for inhibition at 1 µM: screening concentration 1.0 μM
T3 construct: screened for activity against several kinases in Jurkat cells; endogenous in cells; host or cells: Jurkat cell lysate
T3 sequence (O14965 1-403): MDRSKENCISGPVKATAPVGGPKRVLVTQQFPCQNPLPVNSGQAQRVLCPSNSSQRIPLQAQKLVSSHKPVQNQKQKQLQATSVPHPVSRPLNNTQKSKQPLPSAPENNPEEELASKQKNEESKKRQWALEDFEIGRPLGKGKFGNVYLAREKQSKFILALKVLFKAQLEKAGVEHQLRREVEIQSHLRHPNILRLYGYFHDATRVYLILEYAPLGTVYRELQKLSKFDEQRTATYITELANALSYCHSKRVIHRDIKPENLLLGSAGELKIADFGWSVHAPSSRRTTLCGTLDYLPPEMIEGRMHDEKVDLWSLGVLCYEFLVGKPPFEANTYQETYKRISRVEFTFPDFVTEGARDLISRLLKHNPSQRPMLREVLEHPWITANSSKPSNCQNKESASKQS
Summary of the method: (§1)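 Gel-filtered Jurkat lysate (HEPES pH 7.5, 20 mM MnCl2, 5 mg/ml) was pre-incubated 15 min with compound at room temperature, then labelled with 5 μM acyl-phosphate ATP probe AX9989. Tryptic probe-labelled active-site peptides were streptavidin-captured and quantified by LC/MS. Percent inhibition reflected the decrease in labelled-peptide intensity versus no compound.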

AurB or AurC = assay: Probe-based (AX9989) kinase profiling in Jurkat lysate: AurB or AurC
Summary of the method: as §1

JAK1 = biological target: T4, JAK1 (Homo sapiens, UniProt P23458); assay: Probe-based (AX9989) kinase profiling in Jurkat lysate: JAK1; conditions: read-out: Kinase inhibition % at indicated screening concentration: JAK1; for inhibition at 1 µM: screening concentration 1.0 μM
T4 construct: screened for activity against several kinases in Jurkat cells; endogenous in cells; host or cells: Jurkat cell lysate
T4 sequence (P23458 whole entry): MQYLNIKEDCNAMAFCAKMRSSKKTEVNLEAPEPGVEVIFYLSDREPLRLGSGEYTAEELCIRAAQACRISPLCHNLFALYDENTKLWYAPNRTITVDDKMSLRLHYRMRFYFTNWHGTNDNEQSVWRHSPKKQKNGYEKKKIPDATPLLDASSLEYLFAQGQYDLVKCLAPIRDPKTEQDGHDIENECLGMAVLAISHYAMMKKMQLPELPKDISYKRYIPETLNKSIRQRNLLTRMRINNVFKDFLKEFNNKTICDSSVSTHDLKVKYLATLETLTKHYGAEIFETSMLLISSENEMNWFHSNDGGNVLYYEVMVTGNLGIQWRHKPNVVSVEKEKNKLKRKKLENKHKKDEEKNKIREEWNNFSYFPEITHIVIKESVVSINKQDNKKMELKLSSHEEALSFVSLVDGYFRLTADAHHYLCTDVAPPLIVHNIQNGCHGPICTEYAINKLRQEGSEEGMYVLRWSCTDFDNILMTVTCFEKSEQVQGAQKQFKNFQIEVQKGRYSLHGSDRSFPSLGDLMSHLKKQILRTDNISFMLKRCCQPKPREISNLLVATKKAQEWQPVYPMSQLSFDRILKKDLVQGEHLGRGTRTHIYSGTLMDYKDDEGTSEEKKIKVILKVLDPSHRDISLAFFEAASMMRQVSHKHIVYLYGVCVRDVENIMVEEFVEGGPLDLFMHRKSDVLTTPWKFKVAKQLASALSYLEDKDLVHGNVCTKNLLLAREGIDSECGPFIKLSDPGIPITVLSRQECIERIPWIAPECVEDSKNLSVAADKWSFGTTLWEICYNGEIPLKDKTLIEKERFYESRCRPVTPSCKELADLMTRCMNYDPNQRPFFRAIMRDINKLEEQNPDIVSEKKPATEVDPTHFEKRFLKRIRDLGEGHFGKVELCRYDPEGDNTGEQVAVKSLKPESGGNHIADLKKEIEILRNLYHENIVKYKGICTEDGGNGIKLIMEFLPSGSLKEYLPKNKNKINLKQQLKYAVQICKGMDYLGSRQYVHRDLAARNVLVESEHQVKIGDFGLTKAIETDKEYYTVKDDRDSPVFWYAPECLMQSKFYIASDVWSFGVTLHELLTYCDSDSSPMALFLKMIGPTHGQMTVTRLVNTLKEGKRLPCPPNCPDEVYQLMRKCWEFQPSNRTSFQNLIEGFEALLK
Summary of the method: as §1

AMPKa1 or AMPKa2 = assay: Probe-based (AX9989) kinase profiling in Jurkat lysate: AMPKa1 or AMPKa2
Summary of the method: as §1

TAO2 = biological target: T5, TAO2 (Homo sapiens, UniProt Q9UL54); assay: Probe-based (AX9989) kinase profiling in Jurkat lysate: TAO2; conditions: read-out: Kinase inhibition % at indicated screening concentration: TAO2; for inhibition at 1 µM: screening concentration 1.0 μM
T5 construct: screened for activity against several kinases in Jurkat cells; endogenous in cells; host or cells: Jurkat cell lysate
T5 sequence (Q9UL54 1-1235): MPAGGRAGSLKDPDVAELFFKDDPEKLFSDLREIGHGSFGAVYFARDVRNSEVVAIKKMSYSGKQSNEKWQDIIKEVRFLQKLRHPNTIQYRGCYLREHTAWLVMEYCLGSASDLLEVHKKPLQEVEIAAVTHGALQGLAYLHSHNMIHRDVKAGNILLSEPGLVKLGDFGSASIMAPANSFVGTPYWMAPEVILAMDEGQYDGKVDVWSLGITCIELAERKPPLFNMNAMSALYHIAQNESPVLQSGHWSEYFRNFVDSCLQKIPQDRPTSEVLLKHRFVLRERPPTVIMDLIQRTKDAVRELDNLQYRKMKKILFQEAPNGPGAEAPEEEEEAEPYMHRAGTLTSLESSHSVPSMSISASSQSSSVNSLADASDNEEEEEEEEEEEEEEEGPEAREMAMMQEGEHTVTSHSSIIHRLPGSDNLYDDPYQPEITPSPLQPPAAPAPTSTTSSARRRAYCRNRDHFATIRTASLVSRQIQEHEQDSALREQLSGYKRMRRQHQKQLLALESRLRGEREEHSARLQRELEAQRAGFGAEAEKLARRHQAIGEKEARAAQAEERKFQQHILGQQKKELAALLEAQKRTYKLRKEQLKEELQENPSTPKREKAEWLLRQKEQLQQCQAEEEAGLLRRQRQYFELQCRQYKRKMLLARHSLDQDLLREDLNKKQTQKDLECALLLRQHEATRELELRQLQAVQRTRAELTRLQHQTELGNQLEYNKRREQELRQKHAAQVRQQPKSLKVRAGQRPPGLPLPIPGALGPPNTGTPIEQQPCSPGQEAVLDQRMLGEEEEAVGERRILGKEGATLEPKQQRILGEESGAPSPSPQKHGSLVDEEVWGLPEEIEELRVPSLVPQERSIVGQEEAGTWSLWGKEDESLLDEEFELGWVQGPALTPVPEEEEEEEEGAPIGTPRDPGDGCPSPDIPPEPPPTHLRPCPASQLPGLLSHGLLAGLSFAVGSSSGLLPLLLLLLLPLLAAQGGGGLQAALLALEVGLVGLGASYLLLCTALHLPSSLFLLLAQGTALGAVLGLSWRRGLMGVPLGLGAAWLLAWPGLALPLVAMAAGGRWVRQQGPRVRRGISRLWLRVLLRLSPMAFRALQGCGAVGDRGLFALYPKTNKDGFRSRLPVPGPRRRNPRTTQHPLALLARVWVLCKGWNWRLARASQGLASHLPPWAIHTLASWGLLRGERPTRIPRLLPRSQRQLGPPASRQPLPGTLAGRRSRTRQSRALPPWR
Summary of the method: as §1

ACK = biological target: T6, ACK (Homo sapiens, UniProt Q07912); assay: Probe-based (AX9989) kinase profiling in Jurkat lysate: ACK; conditions: read-out: Kinase inhibition % at indicated screening concentration: ACK; for inhibition at 1 µM: screening concentration 1.0 μM
T6 construct: screened for activity against several kinases in Jurkat cells; endogenous in cells; host or cells: Jurkat cell lysate
T6 sequence (Q07912 whole entry): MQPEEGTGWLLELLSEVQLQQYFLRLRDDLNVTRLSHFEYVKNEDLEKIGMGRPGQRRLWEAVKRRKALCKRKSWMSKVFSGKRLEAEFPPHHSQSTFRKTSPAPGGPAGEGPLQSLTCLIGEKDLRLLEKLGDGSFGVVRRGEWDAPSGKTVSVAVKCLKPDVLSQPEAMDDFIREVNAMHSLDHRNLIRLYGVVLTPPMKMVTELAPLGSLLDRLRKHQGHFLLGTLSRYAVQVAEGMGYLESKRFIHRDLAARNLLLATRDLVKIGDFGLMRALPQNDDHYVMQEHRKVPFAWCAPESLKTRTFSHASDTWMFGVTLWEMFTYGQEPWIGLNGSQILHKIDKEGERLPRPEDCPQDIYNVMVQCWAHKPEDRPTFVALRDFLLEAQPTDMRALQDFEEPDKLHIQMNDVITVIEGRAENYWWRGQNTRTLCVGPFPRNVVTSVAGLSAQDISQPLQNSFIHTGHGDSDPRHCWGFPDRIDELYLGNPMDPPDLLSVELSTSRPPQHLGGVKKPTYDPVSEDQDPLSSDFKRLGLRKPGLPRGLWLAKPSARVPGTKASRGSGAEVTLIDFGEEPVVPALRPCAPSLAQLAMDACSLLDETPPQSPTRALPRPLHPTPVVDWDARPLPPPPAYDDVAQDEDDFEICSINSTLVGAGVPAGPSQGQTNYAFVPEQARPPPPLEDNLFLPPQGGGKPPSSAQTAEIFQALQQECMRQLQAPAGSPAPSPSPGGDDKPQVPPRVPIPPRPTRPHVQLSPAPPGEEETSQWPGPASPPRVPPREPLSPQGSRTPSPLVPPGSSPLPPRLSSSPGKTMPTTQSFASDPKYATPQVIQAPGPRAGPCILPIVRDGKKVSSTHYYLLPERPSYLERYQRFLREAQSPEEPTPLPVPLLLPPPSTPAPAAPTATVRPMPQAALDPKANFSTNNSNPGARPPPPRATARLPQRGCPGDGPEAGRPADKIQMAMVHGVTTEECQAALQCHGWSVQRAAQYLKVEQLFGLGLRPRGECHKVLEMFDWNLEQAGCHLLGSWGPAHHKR
Summary of the method: as §1

ABL or ARG = assay: Probe-based (AX9989) kinase profiling in Jurkat lysate: ABL or ARG
Summary of the method: as §1

[2] = read-out: Kinase inhibition % at indicated screening concentration: ERK5

| IC50 (ERK5) | inhibition at 1 µM (ERK5; [2]) | inhibition at 10 µM [1] | inhibition at 1 µM (AurA) | Kinase inhibition % at indicated screening concentration: AurB or AurC (AurB or AurC; screening concentration 1.0 μM) | inhibition at 1 µM (JAK1) | Kinase inhibition % at indicated screening concentration: AMPKa1 or AMPKa2 (AMPKa1 or AMPKa2; screening concentration 1.0 μM) | inhibition at 1 µM (TAO2) | inhibition at 1 µM (ACK) | Kinase inhibition % at indicated screening concentration: ABL or ARG (ABL or ARG; screening concentration 1.0 μM) | inhibition at 0.1 µM (ERK5; screening concentration 0.1 μM, read-out: Kinase inhibition % at indicated screening concentration: ERK5) | inhibition at 0.1 µM (AurA; screening concentration 0.1 μM) | Kinase inhibition % at indicated screening concentration: AurB or AurC (AurB or AurC; screening concentration 0.1 μM) | inhibition at 0.1 µM (JAK1; screening concentration 0.1 μM) | Kinase inhibition % at indicated screening concentration: AMPKa1 or AMPKa2 (AMPKa1 or AMPKa2; screening concentration 0.1 μM) | inhibition at 0.1 µM (TAO2; screening concentration 0.1 μM) | inhibition at 0.1 µM (ACK; screening concentration 0.1 μM) | Kinase inhibition % at indicated screening concentration: ABL or ARG (ABL or ARG; screening concentration 0.1 μM) | Structure (SMILES) |
| --- | --- | --- | --- | --- | --- | --- | --- | --- | --- | --- | --- | --- | --- | --- | --- | --- | --- | --- |
| > 500 nM | ≤ 35% | < 70% | ≤ 35% | E (E is ≦35%) | ≤ 35% | E (E is ≦35%) | ≤ 35% | ≤ 35% | E (E is ≦35%) |  |  |  |  |  |  |  |  | COc1c(Nc2cc3c(cn2)N(C)C(=O)c2ccccc2N3C)cccc1C(=O)O [Compound 9] |
| ≤ 50 nM |  | 70 to 85% |  |  |  |  |  |  |  | 75 to 90% | ≤ 35% | E (E is ≦35%) | ≤ 35% | E (E is ≦35%) | ≤ 35% | ≤ 35% | E (E is ≦35%) | CCOc1cc(C(=O)N2CCC(NC3CC3)C2)ccc1Nc1cc2c(cn1)N(C)C(=O)c1ccccc1N2C (stereo not drawn) [Compound 20] |

Continued, compound first:

| Structure (SMILES) | IC50 (ERK5) | inhibition at 1 µM (ERK5; [2]) | inhibition at 10 µM [1] | inhibition at 1 µM (AurA) | Kinase inhibition % at indicated screening concentration: AurB or AurC (AurB or AurC; screening concentration 1.0 μM) | inhibition at 1 µM (JAK1) | Kinase inhibition % at indicated screening concentration: AMPKa1 or AMPKa2 (AMPKa1 or AMPKa2; screening concentration 1.0 μM) | inhibition at 1 µM (TAO2) | inhibition at 1 µM (ACK) | Kinase inhibition % at indicated screening concentration: ABL or ARG (ABL or ARG; screening concentration 1.0 μM) | inhibition at 0.1 µM (ERK5; screening concentration 0.1 μM, read-out: Kinase inhibition % at indicated screening concentration: ERK5) | inhibition at 0.1 µM (AurA; screening concentration 0.1 μM) | Kinase inhibition % at indicated screening concentration: AurB or AurC (AurB or AurC; screening concentration 0.1 μM) | inhibition at 0.1 µM (JAK1; screening concentration 0.1 μM) | Kinase inhibition % at indicated screening concentration: AMPKa1 or AMPKa2 (AMPKa1 or AMPKa2; screening concentration 0.1 μM) | inhibition at 0.1 µM (TAO2; screening concentration 0.1 μM) | inhibition at 0.1 µM (ACK; screening concentration 0.1 μM) | Kinase inhibition % at indicated screening concentration: ABL or ARG (ABL or ARG; screening concentration 0.1 μM) |
| --- | --- | --- | --- | --- | --- | --- | --- | --- | --- | --- | --- | --- | --- | --- | --- | --- | --- | --- |
| CCOc1cc(C(=O)NCCN(C)C)ccc1Nc1cc2c(cn1)N(C)C(=O)c1ccccc1N2C [Compound 1] | 101 to 500 nM | 75 to 90% | 70 to 85% |  |  |  |  |  |  |  |  |  |  |  |  |  |  |  |
| CCOc1cc(C(=O)NC2CC2)ccc1Nc1cc2c(cn1)N(C)C(=O)c1ccccc1N2C [Compound 2] | > 500 nM | ≤ 35% | < 70% |  |  |  |  |  |  |  |  |  |  |  |  |  |  |  |
| CCOc1cc(C(=O)Nc2ccncc2)ccc1Nc1cc2c(cn1)N(C)C(=O)c1ccccc1N2C [Compound 7] | > 500 nM | 35 to 50% | < 70% | ≤ 35% | E (E is ≦35%) | ≤ 35% | E (E is ≦35%) | ≤ 35% | ≤ 35% | E (E is ≦35%) |  |  |  |  |  |  |  |  |

— patent US20170008888A1 (KYORIN PHARMACEUTICAL CO., LTD., priority 2014, published 2017)
